Measurements published in PubChem BioAssay (NCI).
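These data come from cells grown in 96-well plates and exposed to compound for 48 hours at five concentrations. TGI marks complete inhibition of growth.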

Tests used:
Assay in all cases: NCI tumour cell line growth inhibition, 48 h
[1] = test system: SW-620 colon
[2] = test system: HL-60(TB) leukemia
[3] = test system: EKVX NSCLC
[4] = test system: KM12 colon
[5] = test system: LOX IMVI melanoma
[6] = test system: CAKI-1 renal
[7] = test system: CCRF-CEM leukemia
[8] = test system: UACC-62 melanoma
[9] = test system: SF-539 CNS
[10] = test system: U251 CNS
[11] = test system: DU-145 prostate
[12] = test system: MOLT-4 leukemia
[13] = test system: NCI-H522 lung
[14] = test system: SK-OV-3 ovarian
[15] = test system: A549 NSCLC
[16] = test system: SF-268 CNS
[17] = test system: NCI-H226 lung
[18] = test system: T-47D breast
[19] = test system: SK-MEL-28 melanoma
[20] = test system: SN12C renal
[21] = test system: NCI/ADR-RES ovarian
[22] = test system: MDA-MB-231 breast
[23] = test system: K-562 leukemia
[24] = test system: MDA-N
[25] = test system: A498 renal
[26] = test system: 786-0 renal
[27] = test system: SNB-75 CNS
[28] = test system: COLO 205 colon
[29] = test system: MDA-MB-435
[30] = test system: SK-MEL-5 melanoma
[31] = test system: PC-3 prostate
[32] = test system: MCF7 breast
[33] = test system: RXF 393 renal
[34] = test system: OVCAR-4 ovarian
[35] = test system: HOP-62 NSCLC
[36] = test system: SNB-19 CNS
[37] = test system: RPMI-8226 leukemia
[38] = test system: HT29 colon
[39] = test system: SF-295 CNS
[40] = test system: OVCAR-5 ovarian
[41] = test system: HOP-92 NSCLC
[42] = test system: MALME-3M melanoma
[43] = test system: IGROV1 ovarian
[44] = test system: OVCAR-3 ovarian
[45] = test system: HCT-116 colon
[46] = test system: HS 578T breast
[47] = test system: NCI-H23 lung
[48] = test system: M14 melanoma
[49] = test system: HCT-15 colon
[50] = test system: BT-549 breast
[51] = test system: NCI-H460 lung
[52] = test system: ACHN renal
[53] = test system: SR leukemia
[54] = test system: TK-10 renal
[55] = test system: OVCAR-8 ovarian
[56] = test system: UACC-257 melanoma
[57] = test system: SK-MEL-2 melanoma
[58] = test system: HCC-2998 colon
[59] = test system: UO-31 renal

Measured: TGI

CCN=C(N)CSS(=O)(=O)O
> 100 µM: [1] | [2] | [3] | [4] | [5] | [6] | [7] | [8] | [9] | [10] | [11] | [12] | [13] | [14] | [15] | [16] | [17] | [18] | [19] | [20] | [21] | [22] | [23] | [24] | [25] | [26] | [27] | [28] | [29] | [30] | [31] | [32] | [33] | [34] | [35] | [36] | [37] | [38] | [39] | [40] | [41] | [42] | [43] | [44] | [45] | [46] | [47] | [48] | [49] | [50] | [51] | [52] | [53] | [54] | [55] | [56] | [57]

C[N+](C)(C)C(Cc1c[nH]c(=S)[nH]1)C(=O)O (stereo unspecified)
> 100 µM: [1] | [2] | [3] | [4] | [5] | [6] | [7] | [8] | [9] | [10] | [11] | [12] | [13] | [14] | [15] | [58] | [16] | [17] | [18] | [19] | [20] | [21] | [22] | [23] | [24] | [25] | [26] | [27] | [28] | [29] | [30] | [31] | [32] | [33] | [34] | [35] | [59] | [36] | [37] | [38] | [39] | [40] | [41] | [42] | [43] | [44] | [45] | [46] | [47] | [48] | [49] | [50] | [51] | [52] | [53] | [54] | [55] | [56] | [57]
